Test results: ChEMBL document CHEMBL1131509, “Synthesis and cytotoxicity of 2-acetyl-4,8-dihydrobenzodithiophene-4, 8-dione derivatives” (J Med Chem, 1998)

Tests used:
BT-549 [1] = experiment: in vitro inhibition of breast (BT-549) cancer cell line; format: functional; settings: Homo sapiens
HL-60 = experiment: in vitro inhibition of leukemia (HL-60(TB)) cancer cell line; format: functional; settings: Homo sapiens
MDA-N = experiment: in vitro inhibition of breast (MDA-N) cancer cell line; format: functional; settings: Homo sapiens
LOX IMVI = experiment: in vitro inhibition of melanoma(LOX IMVI) cancer cell line; format: functional; settings: Homo sapiens
MDA-MB-435 = experiment: in vitro inhibition of breast (MDA-MB-435) cancer cell line; format: functional; settings: Homo sapiens
Malme-3M = experiment: in vitro inhibition of melanoma (MALME-3M) cancer cell line; format: functional; settings: Homo sapiens
M14 = experiment: in vitro inhibition of melanoma (M14) cancer cell line; format: functional; settings: Homo sapiens
NCI-H23 = experiment: in vitro inhibition of non-small-cell lung (NCI-H23) cancer cell line; format: functional; settings: Homo sapiens
NCI-H522 = experiment: in vitro inhibition of non-small-cell lung (NCI-H522) cancer cell line; format: functional; settings: Homo sapiens
OVCAR-8 = experiment: in vitro inhibition of ovarian (OVCAR-8) cancer cell line; format: functional; settings: Homo sapiens
SK-MEL-2 [2] = experiment: in vitro inhibition of melanoma (SK-MEL-2) cancer cell line; format: functional; settings: Homo sapiens
SK-MEL-28 = experiment: in vitro inhibition of melanoma (SK-MEL-28) cancer cell line; format: functional; settings: Homo sapiens
UACC-62 = experiment: in vitro inhibition of melanoma (UACC-62) cancer cell line; format: functional; settings: Homo sapiens
UACC-257 = experiment: in vitro inhibition of melanoma (UACC-257) cancer cell line; format: functional; settings: Homo sapiens
Hs-578T = experiment: in vitro inhibition of breast (HS 578T) cancer cell line; format: functional; settings: Homo sapiens
SK-MEL-5 = experiment: in vitro inhibition of melanoma (SK-MEL-5) cancer cell line; format: functional; settings: Homo sapiens
OVCAR-3 = experiment: in vitro inhibition of ovarian (OVCAR-3) cancer cell line; format: functional; settings: Homo sapiens
BT-549 [3] = experiment: in vitro inhibition of breast (BT-549) cancer cell line; settings: Homo sapiens
CAKI-1 = experiment: cytotoxic activity against […] cancer cell line; format: functional, cell-based; settings: Homo sapiens
HCT-8 = experiment: cytotoxic activity against […] cancer cell line; format: functional, cell-based; settings: Homo sapiens
KB = experiment: cytotoxic activity against […] cancer cell line; format: functional, cell-based; settings: Homo sapiens
MCF7 = experiment: cytotoxic activity against […] cancer cell line; format: functional, cell-based; settings: Homo sapiens
SK-MEL-2 [4] = experiment: cytotoxic activity against […] cancer cell line; format: functional, cell-based; settings: Homo sapiens
A549 = experiment: cytotoxic activity against […] cancer cell line; format: functional, cell-based; settings: Homo sapiens
L1210 (1565) = experiment: cytotoxic activity against leukemia (L-1210) cancer cell line; format: functional, cell-based; settings: Mus musculus
P388 = experiment: cytotoxic activity against leukemia (P-388) cancer cell line; format: functional, cell-based; settings: Mus musculus

| Structure (SMILES) | GI50 (BT-549 [1]) [µM] | GI50 (HL-60) [µM] | GI50 (MDA-N) [µM] | GI50 (LOX IMVI) [µM] | GI50 (MDA-MB-435) [µM] | GI50 (Malme-3M) [µM] | GI50 (M14) [µM] | GI50 (NCI-H23) [µM] | GI50 (NCI-H522) [µM] | GI50 (OVCAR-8) [µM] | GI50 (SK-MEL-2 [2]) [µM] | GI50 (SK-MEL-28) [µM] | GI50 (UACC-62) [µM] | GI50 (UACC-257) [µM] | GI50 (Hs-578T) [µM] | GI50 (SK-MEL-5) [µM] | GI50 (OVCAR-3) [µM] | other results |
| --- | --- | --- | --- | --- | --- | --- | --- | --- | --- | --- | --- | --- | --- | --- | --- | --- | --- | --- |
| CC(O)c1cc2c(s1)C(=O)c1ccsc1C2=O (configuration not stated) | 0.078 | 0.015 | 0.013 | 0.01 | < 0.01 | 0.016 | 0.015 | 0.015 | 0.12 | 0.2 | 0.091 | 0.017 | 0.016 | 0.015 | 0.11 | < 0.01 | 0.024 | – |
| CC(=O)OC(C)c1cc2c(s1)C(=O)c1c(C(C)OC(C)=O)csc1C2=O (configuration not stated) | – | 0.068 | 0.21 | 1.6 | 0.19 | 0.19 | 0.51 | 0.87 | < 0.01 | 0.46 | 1.6 | 1.7 | 1.1 | 0.63 | 2.1 | 0.63 | 0.28 | GI50 (BT-549 [3]): 2.1 µM |
| CC(=O)OC(C)c1cc2c(s1)C(=O)c1sccc1C2=O (configuration not stated) | 0.28 | 1.7 | 0.019 | 0.21 | 0.18 | 0.12 | 0.16 | 0.22 | 0.87 | 1.4 | 0.42 | 0.65 | 1.4 | 0.21 | 0.51 | 0.11 | 0.49 | – |
| CC(O)c1cc2c(s1)C(=O)c1sccc1C2=O (configuration not stated) | 0.035 | 0.069 | 0.019 | 0.024 | 0.016 | 0.019 | 0.015 | 0.016 | 0.12 | 0.16 | 0.031 | 0.039 | 0.022 | 0.018 | 0.058 | 0.014 | 0.12 | – |
| CC(=O)c1cc2c(s1)C(=O)c1sccc1C2=O | 0.018 | < 0.01 | < 0.01 | < 0.01 | < 0.01 | 0.016 | 0.017 | 0.018 | 0.017 | 0.031 | 0.033 | < 0.01 | 0.017 | 0.014 | 0.036 | < 0.01 | < 0.01 | – |
| CC(O)c1cc2c(s1)C(=O)c1c(C(C)O)csc1C2=O (configuration not stated) | – | 0.011 | 0.021 | 0.055 | 0.018 | 0.028 | 0.058 | 0.034 | 0.3 | 0.22 | 0.11 | 0.19 | 0.032 | 0.062 | 0.32 | 0.013 | 0.012 | GI50 (BT-549 [3]): 0.16 µM |
| CC(=O)c1cc2c(s1)C(=O)c1scc(C(C)=O)c1C2=O | 0.91 | < 0.01 | 0.2 | 0.022 | 0.23 | 0.22 | 0.44 | 0.29 | 0.38 | 0.23 | 0.16 | 0.2 | 0.23 | 0.17 | 0.28 | 0.32 | 0.03 | – |
| CC(=O)OC(C)c1cc2c(s1)C(=O)c1scc(C(C)OC(C)=O)c1C2=O (configuration not stated) | 0.2 | 0.65 | 0.059 | 0.12 | 0.021 | 0.13 | 0.12 | 0.16 | 0.2 | 0.23 | 0.15 | 0.21 | 0.2 | 0.17 | 0.25 | 0.034 | 0.27 | – |
| O=C1c2ccsc2C(=O)c2sccc21 | – | – | – | – | – | – | – | – | – | – | – | – | – | – | – | – | – | IC50 (CAKI-1): 0.59 µM; IC50 (HCT-8): 0.17 µM; IC50 (KB): 0.27 µM; IC50 (MCF7): < 0.085 µM; IC50 (SK-MEL-2 [4]): 0.32 µM; IC50 (A549): 0.17 µM |
| CC(O)c1cc2c(s1)C(=O)c1scc(C(C)O)c1C2=O (configuration not stated) | 0.2 | 0.44 | 0.15 | 0.12 | 0.16 | 0.15 | 0.16 | 0.19 | 0.4 | 0.26 | 0.2 | 0.23 | 0.25 | 0.16 | 0.32 | 0.14 | 0.36 | – |
| CC(=O)c1cc2c(s1)C(=O)c1c(C(C)=O)csc1C2=O | – | 0.053 | 0.17 | 1.1 | 0.18 | 0.13 | 1.5 | 1.3 | 0.53 | 1.5 | 1.7 | 1.8 | 2 | 0.56 | 2.4 | 1.2 | 0.23 | GI50 (BT-549 [3]): 1.7 µM |
| O=C1c2ccsc2C(=O)c2ccsc21 | – | – | – | – | – | – | – | – | – | – | – | – | – | – | – | – | – | IC50 (CAKI-1): 1.5 µM; IC50 (HCT-8): 0.32 µM; IC50 (KB): 0.31 µM; IC50 (L1210 (1565)): 1.7 µM; IC50 (MCF7): 0.48 µM; IC50 (P388): < 0.53 µM; IC50 (A549): 0.26 µM |
| CC(=O)OC(C)c1cc2c(s1)C(=O)c1ccsc1C2=O (configuration not stated) | – | < 0.01 | < 0.01 | < 0.01 | < 0.01 | < 0.01 | 0.013 | 0.011 | 0.15 | 0.036 | 0.026 | 0.019 | 0.017 | 0.025 | 0.16 | 0.014 | < 0.01 | GI50 (BT-549 [3]): 0.046 µM |
| CC(=O)c1cc2c(s1)C(=O)c1ccsc1C2=O | 0.18 | 0.045 | 0.037 | 0.025 | 0.037 | 0.117 | 0.13 | 0.15 | 0.16 | 0.3 | 0.2 | 0.16 | 0.21 | 0.13 | 0.16 | 0.023 | 0.16 | – |
